According to US20120190656A1, “METHODS FOR SELECTING […] TO IMPROVE HDL CHOLESTEROL AND TR[…]” (priority 2010, published 2012):

Experiments:
HDL levels = assay: Population studies (Aging, FHS, collective sample), maximum likelihood models of HDL versus vitamin D intake and genotype; type: in vivo, human; conditions: for increase of HDL: vitamin D deficient subjects, retrospective studies
Procedure: (§1) Study populations. Factors associated with cardiovascular disease were analyzed using samples from an Aging study population from Utah (“Aging” or “Utah” sample), which included approximately 2500 subjects in 98 Utah pedigrees with 2 or more probands such as, e.g., early stroke, coronary heart disease death, or hypertension. Details regarding subject selection have been previously published. See Williams et al., Recruitment of members of high-risk Utah pedigrees. Control Clin Trials 8: 105S-114S (1987); see also Table 2 below. Additional follow-up assessments were performed, where a validated dietary survey was administered, lipid profiles were determined, DNA was obtained, and standard cardiovascular risk factors were measured. See Hunt et al., Predictors of an increased risk of future hypertension in Utah. A screening analysis. Hypertension 17: 969-976 (1991). In some of the following examples results are described for subjects selected from the foregoing population, wherein samples were excluded if they lacked data relating to complete lipid profiles, genetic polymorphism data, or dietary survey data (n=1060 subjects in 96 families for HDL analysis, and n=1057 subjects in 70 families for triglyceride analysis).
(§2) A replication cohort, moreover, consisted of 5243 caucasian subjects from the NHLBI Family Heart Study (“FamHS” or “FHS” sample), which were not previously administered cholesterol modifying medications. Data for these subjects included lipid profiles and genetic analyses, as described. See Heard-Costa et al., NRXN3 is a novel locus for waist circumference: a genome-wide association study from the CHARGE Consortium. PLoS Genet 5: e1000539 (2009). These population-based families were gathered as part of four studies: the Framingham Heart Study, the Utah Family Tree Study, and ARIC centers in Minneapolis and Forsyth County, N.C. (n=2890 individuals in 504 families; see Table 2 for sample characteristics).
(§3) Both the Aging and FamHS samples were subdivided by season (see Table 2) when measuring both diet and lipids levels. Winter subsamples included data analyzed from November to March and consisted of 362 Aging subjects and 1006 FamHS subjects as shown below in Table 2. Because HDL and triglyceride levels are inversely correlated, vitamin D-triglyceride interactions were also measured from the foregoing samples, as further described below.
(§4) Dietary questionnaire and winter subsamples. Vitamin D intake was measured both in the Aging and FHS samples via a staff-administered semi-quantitative food frequency questionnaire with reproducibility and validity. See, e.g., Willett et al., Reproducibility and validity of a semiquantitative food frequency questionnaire. Am J Epidemiol 122: 51-65 (1985). […] See Jacques et al., Comparison of micronutrient intake measured by a dietary questionnaire and biochemical indicators of micronutrient status. Am J Clin Nutr 57: 182-189 (1993).
(§5) Accordingly, the Aging and FHS studies were subdivided into seasonal and lipid measurement cohorts, both of which occurred at the same clinic visit for the subject.
(§6) Study design and analysis for the aging and FHS samples. jPAP software (see Hasstedt et al., jPAP: Document-driven software for genetic analysis. Genet Epidemiol 29 (2005)), was employed for maximum likelihood analysis, correction of potential covariates, and to estimate heritability attributable to gene-environment interaction factors (interaction) measured as changes in estimated polygenic variance. Natural log transformed HDL was employed as the dependent variable, and all maximum likelihood models included age, sex, and log transformed BMI as baseline covariates. […] Analyses were performed separately for the entire Aging sample and the Aging winter subsample. The results were confirmed using the FHS sample population. […]

triglyceride levels = assay: Population studies (collective sample), maximum likelihood models of triglycerides versus vitamin D intake and genotype; type: in vivo, human
Procedure: as §1, §2, §3, §4, §5, §6

[1] = wintertime vitamin D intake raised from 50 IU to 550 IU, heterozygous G/C at rs3135506, model estimate
[2] = wintertime vitamin D intake raised from 50 IU to 550 IU, homozygous C/C at rs3135506, model estimate

Question: Which “association of vitamin D alone with HDL levels” value (HDL levels; FHS study population, entire sample) does the source give for `C=C1/C(=C\C=C2/CCC[C@]3(C)[C@@H]([C@H](C)CCCC(C)(C)O)CC[C@@H]23)C[C@@H](O)C[C@@H]1O` [vitamin D, 1,25-dihydroxyvitamin D3] here?
Answer: Its value is “not associated with an increase in patient HDL levels”.

Question: And the “increase of HDL” value (HDL levels; heterozygous for a vitamin D sensitive allele)?
Answer: The value was 5%.

Question: What about the “increase of HDL” value (HDL levels; homozygous for a vitamin D sensitive allele) of the same compound?
Answer: The value was 10%.

Question: And the “increase of HDL cholesterol” value (HDL levels; [1])?
Answer: Its value is “approximately 10 mg/dL”.

Question: And the “increase of HDL cholesterol” value (HDL levels; [2])?
Answer: The value was “approximately 20 mg/dL”.

Question: And the “decrease of HDL cholesterol” value (HDL levels; wintertime vitamin D intake raised from 50 IU to 550 IU, homozygous G/G at rs3135506, model estimate)?
Answer: The value was “approximately 0.5 mg/dL”.

Question: And the “effect of vitamin D on triglyceride levels” value (triglyceride levels; collective sample, entire, patients with rs3135506 polymorphism, p=0.33)?
Answer: Its value is “did not have a significant effect”.

Question: And the “decrease of triglyceride levels” value (triglyceride levels; vitamin D deficient subjects, heterozygous for a vitamin D sensitive allele, retrospective studies)?
Answer: Its value is 5%.

Question: And the “decrease of triglyceride levels” value (triglyceride levels; vitamin D deficient subjects, homozygous for a vitamin D sensitive allele, retrospective studies)?
Answer: The value was 10%.

Question: What about the “decrease of triglyceride levels” value (triglyceride levels; [1]) of the same compound?
Answer: Its value is 50 mg/dL.

Question: And the “decrease of triglyceride levels” value (triglyceride levels; [2])?
Answer: Its value is 125 mg/dL.

Question: What about the increase of triglycerides (triglyceride levels; wintertime vitamin D intake raised from 50 IU to 550 IU, homozygous G/G at rs3135506 (wild-type), model estimate) of the same compound?
Answer: Its increase of triglycerides is 2 mg/dL.
